Test results taken from patent US6511978B1, “Pyrrole derivatives useful for farnesyl transferase inhibitors and their preparations” (LG Life Sciences, Ltd., priority 1999, dated 2003).
pIC50: −log10 of the molar value.

Legend:
Ras farnesyl transferase [1] = target: T1, Ras farnesyl transferase (Homo sapiens, UniProt P49354+P49356); assay: Ras farnesyl transferase enzyme inhibition, H-Ras substrate; assay type: biochemical; conditions: H-Ras substrate protein; recombinant farnesyl transferase; 30 minutes at 37° C.
T1 construct: made in house
From the text: (§1) In the present experiment, the improved Pompliano's method (see: Pompliano et al., Biochemistry, 31, 3800, 1992) was applied. Specifically, Ras farnesyl transferase produced by genetic recombination techniques was used, and fused protein of H-Ras(H-Ras-CVLS) substituted with polybasic lysine domain at C-terminus of K-Ras (see: Korean Patent Appln. No. 97-14409) was used as a substrate after it had been purified according to the known method(see, Chung et al., Biochimica et Biophysica Acta, 1129, 278, 1992).
(§2) The enzyme reaction was performed in 50 μl of 50 mM Sodium HEPES buffer solution containing 25 mM of potassium chloride, 25 mM of magnesium chloride, 10 mM of DTT and 50 μM of zinc chloride. 1.5 μM of Ras substrate protein, 0.15 μM of tritium-farnesylpyrophosphate and 4.5 nM of farnesyl transferase were used. More specifically, in the initial step, farnesyl transferase was added to the above buffer solution, reaction was maintained for 30 minutes at 37° C. and then the reaction was stopped by adding 1 ml of ethanol solution containing 1M HCl. The formed precipitates were adsorbed to GF/B filter using Hopper harvestor(Hopper #FH 225V) for filter-binding, washed with ethanol, and then radioactivity of the dried filter was measured using LKB β counter. Enzyme titer was measured in the unsaturated state of substrate where the concentration of Ras substrate protein and farnesyl transferase have quantitative relationship. The compound according to the present invention dissolved in dimethyl sulfoxide(DMSO) was added to the reaction solution in an amount of less than 5% of the total reaction solution, and then the enzyme inhibitory activity thereof was measured. The enzyme inhibitory activity was represented by percentage of the amount of farnesyl incorporated into the Ras substrate protein in the presence of the test compound to that in the absence of the test compound. IC50 of the test compound was defined as the concentration at which 50% of the enzyme activity was inhibited. To evaluate the selective enzyme inhibitory activity of the compound according to the present invention, inhibitory activity on geranylgeranyl transferase was measured. Geranylgeranyl transferase was purified from bovine brain according to the modified Schaber's method(Schaber et al., J. Biol. Chem. 265, 14701, 1990), and substantially the same experimental procedure as that for farnesyl transferase was performed on geranylgeranyl pyrophosphate and Ras-CVIL substrate protein.

Ras farnesyl transferase [2] = target: T1, Ras farnesyl transferase; assay: Ras farnesyl transferase enzyme inhibition, K-Ras substrate (H-Ras fused with polybasic lysine domain of K-Ras); assay type: biochemical; conditions: K-Ras substrate (fused protein of H-Ras with polybasic lysine domain of K-Ras); recombinant farnesyl transferase
From the text: as §1, §2

Ras farnesyl transferase [3] = target: T2, Ras farnesyl transferase (Rattus norvegicus, UniProt Q02293+Q04631); assay: In vivo (intracellular) Ras farnesylation inhibition in Rat2 cell line expressing C-Harvey-Ras; assay type: cell-based; conditions: Rat2 cells expressing C-Harvey-Ras; concentration inhibiting 50% of farnesyl binding; read-out: H-Ras CIC50
T2 construct: endogenous in cells; host or cells: Rat2 fibroblasts transformed with C-Harvey-Ras or with the H-Ras/K-Ras polybasic-domain fusion
Protocol: (§3) In the present experiment, Rat2 cell line which expresses C-Harvey-Ras protein having transforming activity and Rat2 cell line(Korean patent application No. 97-14409) which is transformed with fused protein of H-Ras substituted with polybasic lysine domain at C-terminus of K-Ras were used. The experiment was performed by the modified Declue's method(Declue. J. E. et al., Cancer Research, 51, 712, 1991) as follows.
(§4) 3×10^5 cells of transformed Rat2 fibroblast cell line were sprayed on 60 mm cell cultivation dish and cultivated for 48 hours in a cell incubator at 37° C. and after 50% or more of density was reached, it was treated with the test compounds. The compound according to the present invention dissolved in dimethylsulfoxide(DMSO) was used. 1% concentration of dimethylsulfoxide was used in both control and test groups. After 4 hours from the treatment with the compound, methionine labeled with 150 μCi of radioactive isotope [^35S] per 1 ml of medium was added and after cultivating for 20 hours, the cells were washed with physiological saline water. The cells were lysed using 1 ml of cold cell lysis buffer solution(50 mM of Sodium HEPES buffer solution containing 5 mM of magnesium chloride, 1 mM of DTT, 1% NP 40, 1 mM of EDTA, 1 mM of PMSF, 2 μM of leupeptin, 2 μM of pepstatin A and 2 μM of antipain) and the supernatant wherein the cells were lysed was obtained by high-velocity centrifugation of 12,000 g×5 minutes. The amount of radioisotope in the supernatant was measured and standardized to obtain a quantitative result in immunoprecipitation reaction and then, Y13-259, a monoclonal antiboby specifically binding to Ras protein(see: Furth, M. E. et al., J. Virol, 43, 294, 1982) was added and reacted for 15 hours at 4° C. Protein A(combined with goat anti-murine immunoglobulin antibody)-agarose suspension was added to the solution and reacted for 1 hour at 4° C. and then, to remove the unspecific binding product, immunoprecipitates were washed with a buffer solution (50 mM Tris chloride buffer solution containing 50 mM of sodium chloride, 0.5% of sodium dioxycholate, 0.5% of NP 40 and 0.1% of SDS). The precipitates were added to a buffer solution for electrophoresis and boiled and then, electrophoresis was performed using 13.5% of SDS polyacrylamide gel. After electrophoresis, the gel was fixed and dried. Then, the gel was exposed to X-ray film, developed and printed. From the result of the experiment, intensities of band of protein combined with or without farnesyl of Ras protein was measured, and the concentration of the test compound inhibiting 50% of farnesyl binding was defined as CIC50, an in vivo Ras farnesyl transferase inhibitory activity. IC50 means the data from Experimental 1 and CIC50 means the data from Experimental 2.

Ras farnesyl transferase [4] = target: T2, Ras farnesyl transferase; assay: In vivo (intracellular) Ras farnesylation inhibition in Rat2 cell line transformed with H-Ras fused with polybasic lysine domain of K-Ras; assay type: cell-based; conditions: Rat2 cells transformed with H-Ras/K-Ras polybasic domain fused protein; concentration inhibiting 50% of farnesyl binding; read-out: K-Ras CIC50
Protocol: as §3, §4

pIC50 (Ras farnesyl transferase [1]) | pIC50 (Ras farnesyl transferase [2]) | pIC50 (Ras farnesyl transferase [3]) | pIC50 (Ras farnesyl transferase [4]) | Compound
> 8.00 | > 8.00 | > 7.60 | 4.30 to 5.00 | COCCN(C)C(=O)c1cn(Cc2cncn2CCCOCc2ccccc2)cc1-c1cccc2ccccc12 [Example 1, 1-[1-(3-benzyloxypropyl)-1H-imidazol-5-yl]methyl-3-[N-(2-methoxyethyl)-N-methyl]carbamoyl-4-(naphthalen-1-yl)-1H-pyrrole]
> 8.00 | > 8.00 | > 7.60 | 4.30 to 5.00 | O=C(c1cn(Cc2cncn2CCCOCc2ccccc2)cc1-c1cccc2ccccc12)N1CCOCC1 [Example 2, 1-[1-(3-benzyloxypropyl)-1H-imidazol-5-yl]methyl-3-(morpholin-4-yl)carbonyl-4-(naphthalen-1-yl)-1H-pyrrole]
> 8.00 | > 8.00 | > 7.60 | 4.30 to 5.00 | CN1CCN(C(=O)c2cn(Cc3cncn3CCCOCc3ccccc3)cc2-c2cccc3ccccc23)CC1 [Example 3, 1-[1-(3-benzyloxypropyl)-1H-imidazol-5-yl]methyl-3-(4-methylpiperazin-1-yl)carbonyl-4-(naphthalen-1-yl)-1H-pyrrole]
> 8.00 | > 8.00 | > 7.60 | 4.00 to 5.00 | COCCN(C)C(=O)c1cn(Cc2cncn2CCCOc2ccccc2)cc1-c1cccc2ccccc12 [Example 4, 3-[N-(2-methoxyethyl)-N-methyl]carbamoyl-4-(naphthalen-1-yl)-1-[1-(3-phenoxypropyl)-1H-imidazol-5-yl]methyl-1H-pyrrole]
> 8.00 | > 8.00 | > 7.60 | 4.30 to 5.00 | COCCN(C)C(=O)c1cn(Cc2cncn2CCCSc2ccccc2)cc1-c1cccc2ccccc12 [Example 5, 3-[N-(2-methoxyethyl)-N-methyl]carbamoyl-4-(naphthalen-1-yl)-1-[1-(3-thiophenoxypropyl)-1H-imidazol-5-yl]methyl-1H-pyrrole]
> 8.00 | > 8.00 | > 7.60 | 4.30 to 5.00 | O=C(c1cn(Cc2cncn2CCCOc2ccccc2)cc1-c1cccc2ccccc12)N1CCOCC1 [Example 6, 3-(morpholin-4-yl)carbonyl-4-(naphthalen-1-yl)-1-[1-(3-phenoxypropyl)-1H-imidazol-5-yl]methyl-1H-pyrrole]
> 8.00 | > 8.00 | > 7.60 | 4.30 to 5.00 | CN1CCN(C(=O)c2cn(Cc3cncn3CCCOc3ccccc3)cc2-c2cccc3ccccc23)CC1 [Example 7, 3-(4-methylpiperazin-1-yl)carbonyl-4-(naphthalen-1-yl)-1-[1-(3-phenoxypropyl)-1H-imidazol-5-yl]methyl-1H-pyrrole]
> 8.00 | > 8.00 | < 7.60 | 4.30 to 5.00 | CCSCCCn1cncc1Cn1cc(C(=O)N(C)CCOC)c(-c2cccc3ccccc23)c1 [Example 8, 3-[N-(2-methoxyethyl)-N-methyl]carbamoyl-4-(naphthalen-1-yl)-1-[1-(3-thioethoxypropyl)-1H-imidazol-5-yl]methyl-1H-pyrrole]
> 8.00 | > 8.00 | > 7.60 | 4.30 to 5.00 | COCCN(C)C(=O)c1cn(Cc2cncn2CCCN2CCOCC2)cc1-c1cccc2ccccc12 [Example 9, 3-[N-(2-methoxyethyl)-N-methyl]carbamoyl-1-{1-[3-(morpholin-4-yl)propyl]-1H-imidazol-5-yl}methyl-4-(naphthalen-1-yl)-1H-pyrrole]
> 8.00 | > 7.00 | < 7.60 | 4.30 to 5.00 | COCCN(C)C(=O)c1cn(Cc2cncn2CCc2cccs2)cc1-c1cccc2ccccc12 [Example 10, 3-[N-(2-methoxyethyl)-N-methyl]carbamoyl-4-(naphthalen-1-yl)-1-{1-[2-(thiophen-2-yl)ethyl]-1H-imidazol-5-yl}methyl-1H-pyrrole]
> 8.00 | > 7.00 | < 7.60 | 4.30 to 5.00 | CN1CCN(C(=O)c2cn(Cc3cncn3CCc3cccs3)cc2-c2cccc3ccccc23)CC1 [Example 11, 3-(4-methylpiperazin-1-yl)carbonyl-4-(naphthalen-1-yl)-1-{1-[2-(thiophen-2-yl)ethyl]-1H-imidazol-5-yl}methyl-1H-pyrrole]
> 8.00 | > 7.00 | < 7.60 | 4.30 to 5.00 | CN1CCN(C(=O)c2cn(Cc3cncn3Cc3ccco3)cc2-c2cccc3ccccc23)CC1 [Example 12, 1-[1-(furan-2-yl)methyl-1H-imidazol-5-yl]methyl-3-(4-methylpiperazin-1-yl)carbonyl-4-(naphthalen-1-yl)-1H-pyrrole]
> 8.00 | > 8.00 | > 7.60 | 4.30 to 5.00 | COCCN(C)C(=O)c1cn(Cc2cncn2C2CCN(Cc3ccccc3)CC2)cc1-c1cccc2ccccc12 [Example 13, 1-[1-(1-benzylpiperidin-4-yl)-1H-imidazol-5-yl]methyl-3-[N-(2-methoxyethyl)-N-methyl]carbamoyl-4-(naphthalen-1-yl)-1H-pyrrole]
> 8.00 | > 8.00 | > 7.60 | 4.30 to 5.00 | O=C(c1cn(Cc2cncn2C2CCN(Cc3ccccc3)CC2)cc1-c1cccc2ccccc12)N1CCOCC1 [Example 14, 1-[1-(1-benzylpiperidin-4-yl)-1H-imidazol-5-yl]methyl-3-(morpholin-4-yl)carbonyl-4-(naphthalen-1-yl)-1H-pyrrole]
> 8.22 | > 7.89 | < 7.60 | < 5.00 | Cc1ncc(Cn2cc(C(=O)N3CCN(C)CC3)c(-c3cccc4ccccc34)c2)n1Cc1ccc2c(c1)OCO2 [Example 15, 1-[2-methyl-1-(3,4-methylenedioxybenzyl)-1H-imidazol-5-ylmethyl]-3-(4-methylpiperazin-1-yl)carbonyl-4-(naphthalen-1-yl)-1H-pyrrole]

Compound | pIC50 (Ras farnesyl transferase [1]) | pIC50 (Ras farnesyl transferase [2]) | pIC50 (Ras farnesyl transferase [3]) | pIC50 (Ras farnesyl transferase [4])
1-[1-(3-benzyloxypropyl)-2-methyl-1H-imidazol-5-ylmethyl]-3-[N-(2-methoxyethyl)-N-methyl]carbamoyl-4-(naphthalen-1-yl)-1H-pyrrole [Example 34] | > 8.40 | > 8.33 | < 7.90 | < 5.00
